From patent US11388901B2, “Herbicidal azines” (BASF SE, priority 2017, dated 2022)

Experiments:
Assay type in all cases: in vivo
[1] = system: Amaranthus retroflexus; assay: greenhouse pre-emergence herbicidal test; details: scale 0 to 100
Excerpt: The seeds of the test plants were sown separately for each species. For the pre-emergence treatment, the active ingredients, which had been suspended or emulsified in water, were applied directly after sowing by means of finely distributing nozzles. The containers were irrigated gently to promote germination and growth and subsequently covered with transparent plastic hoods until the plants had rooted. This cover caused uniform germination of the test plants, unless this had been impaired by the active ingredients. […] The test period extended over 2 to 4 weeks. During this time, the plants were tended, and their response to the individual treatments was evaluated. Evaluation was carried out using a scale from 0 to 100. 100 means no emergence of the plants, or complete destruction of at least the aerial moieties, and 0 means no damage, or normal course of growth. A moderate herbicidal activity is given at values of at least 60, a good herbicidal activity is given at values of at least 70, and a very good herbicidal activity is given at values of at least 85. The plants used in the greenhouse experiments were of the following species: […]

[2] = system: Alopercurus myosuroides; assay: greenhouse pre-emergence herbicidal test; details: scale 0 to 100
Excerpt: (§1) The culture containers used were plastic flowerpots containing loamy sand with approximately 3.0% of humus as the substrate. The seeds of the test plants were sown separately for each species.
(§2) For the pre-emergence treatment, the active ingredients, which had been suspended or emulsified in water, were applied directly after sowing by means of finely distributing nozzles.
(§3) The containers were irrigated gently to promote germination and growth and subsequently covered with transparent plastic hoods until the plants had rooted. This cover caused uniform germination of the test plants, unless this had been impaired by the active ingredients.
(§4) Depending on the species, the plants were kept at 10-25° C. or 20-35° C., respectively.
(§5) The test period extended over 2 to 4 weeks. During this time, the plants were tended, and their response to the individual treatments was evaluated.
(§6) Evaluation was carried out using a scale from 0 to 100. 100 means no emergence of the plants, or complete destruction of at least the aerial moieties, and 0 means no damage, or normal course of growth. A moderate herbicidal activity is given at values of at least 60, a good herbicidal activity is given at values of at least 70, and a very good herbicidal activity is given at values of at least 85.
(§7) The plants used in the greenhouse experiments were of the following species: […]

[3] = system: Setaria faberi; assay: greenhouse pre-emergence herbicidal test; details: scale 0 to 100
Excerpt: as §1, §2, §3, §4, §5, §6, §7

[4] = system: Echinocloa crus-galli; assay: greenhouse pre-emergence herbicidal test; details: 250 g/ha, scale 0 to 100
Excerpt: as §1, §2, §3, §4, §5, §6, §7

[5] = system: Apera spica-venti; assay: greenhouse pre-emergence herbicidal test; details: scale 0 to 100
Excerpt: as §1, §2, §3, §4, §5, §6, §7

[6] = system: Abutilon theophrasti; assay: greenhouse post-emergence herbicidal test; details: 250 g/ha, scale 0 to 100
Excerpt: as §1
(§8) For the post-emergence treatment, the test plants were first grown to a height of 3 to 15 cm, depending on the plant habit, and only then treated with the active ingredients which had been suspended or emulsified in water. For this purpose, the test plants were either sown directly and grown in the same containers, or they were first grown separately as seedlings and transplanted into the test containers a few days prior to treatment.
as §4, §5, §6, §7

[7] = system: Amaranthus retroflexus; assay: greenhouse post-emergence herbicidal test; details: 250 g/ha, scale 0 to 100
Excerpt: as §1, §8, §4, §5, §6, §7

[8] = system: Echinocloa crus-galli; assay: greenhouse post-emergence herbicidal test; details: 250 g/ha, scale 0 to 100
Excerpt: as §1, §8, §4, §5, §6, §7

[9] = system: Lolium multiflorum; assay: greenhouse pre-emergence herbicidal test; details: 250 g/ha, scale 0 to 100
Excerpt: as §1, §2, §3, §4, §5, §6, §7

[10] = system: Abutilon theophrasti; assay: greenhouse pre-emergence herbicidal test; details: 250 g/ha, scale 0 to 100
Excerpt: as §1, §2, §3, §4, §5, §6, §7

[11] = system: Setaria viridis; assay: greenhouse post-emergence herbicidal test; details: 250 g/ha, scale 0 to 100
Excerpt: as §1, §8, §4, §5, §6, §7

| SMILES | herbicidal activity ([1]; 250 g/ha) | herbicidal activity ([2]; 250 g/ha) | herbicidal activity ([3]; 250 g/ha) | herbicidal activity [4] | other results |
| --- | --- | --- | --- | --- | --- |
| CC(C)(F)c1nc(N)nc(Nc2c(F)ncc(F)c2I)n1 [Example 41] | 100% | 98% | 100% |  |  |
| Nc1nc(Nc2c(F)ncc(F)c2Cl)nc(C2(Cl)CCCC2)n1 [Example 21] | 100% |  | 95% |  |  |
| Nc1nc(Nc2c(F)ncc(F)c2Cl)nc(C2(F)CCCCC2)n1 [Example 11] | 100% | 100% | 100% |  |  |
| CCC(F)(CC)c1nc(N)nc(Nc2c(F)ncc(F)c2Br)n1 [Example 52] | 100% |  | 100% | 100% |  |
| C#CC(C)(F)c1nc(N)nc(Nc2c(F)ncc(F)c2Cl)n1 (centres unmarked) [Example 48] | 100% |  | 100% | 98% |  |
| Nc1nc(Nc2c(F)ncc(F)c2Cl)nc(C2(F)CCCC2)n1 [Example 12] | 100% |  | 100% | 98% |  |
| Nc1nc(Nc2c(F)ncc(F)c2Br)nc(C(F)C2CCCC2)n1 (centres unmarked) [Example 61] | 100% | 90% | 100% |  |  |
| CC(C)(C#N)c1nc(N)nc(Nc2c(F)ncc(F)c2Cl)n1 [Example 28] | 100% |  |  |  |  |
| Cc1nc(F)c(Nc2nc(N)nc(C(C)(C)F)n2)c(Cl)c1F [Example 32, N4-(4-Chloro-2,5-difluoro-6-methyl-3-pyridyl)-6-(1-fluoro-1-methyl-ethyl)-1,3,5-triazine-2,4-diamine] | 100% | 90% |  | 85% |  |
| CC(C)(C)c1nc(N)nc(Nc2c(F)ncc(F)c2Cl)n1 [Example 7, 6-tert-butyl-N4-(4-chloro-2,5-difluoro-3-pyridyl)-1,3,5-triazine-2,4-diamine] | 90% | 98% | 95% |  |  |
| CC(C)(F)c1nc(N)nc(Nc2c(F)nc(F)c(F)c2OCC(F)(F)F)n1 [Example 65] | 100% |  |  |  | herbicidal activity ([5]; 250 g/ha): 100%; herbicidal activity [6]: 100%; herbicidal activity [7]: 100%; herbicidal activity [8]: 95% |
| CC(C)(F)c1nc(N)nc(Nc2c(F)ncc(F)c2Cl)n1 [Example 4] | 100% | 100% |  | 100% |  |
| CCCC(F)c1nc(N)nc(Nc2c(F)ncc(F)c2Cl)n1 (racemic) [Example 13] | 100% |  | 100% | 100% |  |
| Nc1nc(Nc2c(F)ncc(F)c2Cl)nc(C2(F)CC=CC2)n1 [Example 19] | 100% |  | 100% | 100% |  |
| CC1(c2nc(N)nc(Nc3c(F)ncc(F)c3Cl)n2)CC1 [Example 33] | 98% |  |  |  |  |
| CCCc1nc(F)c(Nc2nc(N)nc(C(C)(C)F)n2)c(Cl)c1F [Example 44] | 100% |  |  |  |  |
| CC(C)(CO)c1nc(N)nc(Nc2c(F)ncc(F)c2Cl)n1 [Example 40] | 100% | 90% | 95% |  |  |
| Nc1nc(Nc2c(F)ncc(F)c2Br)nc(C2(F)CCCC2)n1 [Example 43] | 100% | 100% | 100% |  |  |
| CC(C)CC(F)(F)c1nc(N)nc(Nc2c(F)ncc(F)c2Cl)n1 [Example 38] | 100% |  | 90% |  |  |

| SMILES | herbicidal activity ([1]; 250 g/ha) | herbicidal activity ([2]; 250 g/ha) | herbicidal activity ([3]; 250 g/ha) | herbicidal activity [4] | other results |
| --- | --- | --- | --- | --- | --- |
| COC1(c2nc(N)nc(Nc3c(F)ncc(F)c3Cl)n2)CCCC1 [Example 10] | 100% | 100% |  |  | herbicidal activity [9]: 95% |
| CC(C)(F)c1nc(N)nc(Nc2c(F)ncc(F)c2Br)n1 [Example 35] | 100% | 100% |  | 100% |  |
| CC1(c2nc(N)nc(Nc3c(F)ncc(F)c3Cl)n2)CCCC1 [Example 14] | 85% |  |  |  |  |
| CCCC(F)(F)c1nc(N)nc(Nc2c(F)ncc(F)c2Cl)n1 [Example 37] | 100% | 100% | 100% |  |  |
| CC1(c2nc(N)nc(Nc3c(F)ncc(F)c3Cl)n2)CCC1 [Example 9] | 100% | 100% |  | 100% |  |
| Nc1nc(Nc2c(F)ncc(F)c2Cl)nc(C(F)C2CCCC2)n1 (racemic) [Example 20] | 100% | 100% | 100% |  |  |
| Nc1nc(Nc2c(F)ncc(F)c2Cl)nc(C2(F)CC2)n1 [Example 31] | 100% | 100% |  | 100% |  |
| Nc1nc(Nc2c(F)nc(F)c(F)c2Cl)nc(C2(F)CCCC2)n1 [Example 69] |  |  |  |  | herbicidal activity ([1]; 125 g/ha): 100%; herbicidal activity ([2]; 125 g/ha): 100%; herbicidal activity ([3]; 125 g/ha): 100% |
| CCCC(F)c1nc(N)nc(Nc2c(F)ncc(F)c2Br)n1 (centres unmarked) [Example 46] | 100% | 98% | 100% |  |  |
| Cc1ccnc(Cl)c1Nc1nc(N)nc(C(C)(C)F)n1 [Example 53] | 100% |  | 95% |  | herbicidal activity [10]: 100%; herbicidal activity [6]: 80%; herbicidal activity [7]: 98% |
| Cc1ccnc(F)c1Nc1nc(N)nc(C2(F)CCCC2)n1 [Example 54] | 100% |  | 100% |  | herbicidal activity ([5]; 250 g/ha): 98%; herbicidal activity [11]: 80% |
| CC1CCC(c2nc(N)nc(Nc3c(F)ncc(F)c3Cl)n2)CC1 (centres unmarked) [Example 23] | 95% |  |  |  |  |
| N#Cc1ccnc(Cl)c1Nc1nc(N)nc(C2(F)CCCC2)n1 [Example 60] | 98% |  |  | 85% | herbicidal activity ([5]; 250 g/ha): 95%; herbicidal activity [6]: 95%; herbicidal activity [7]: 80% |
| Nc1nc(Nc2c(F)ncc(F)c2Cl)nc(C2CCCC2)n1 [Example 6] | 90% | 80% |  |  |  |
| CC(F)c1nc(N)nc(Nc2c(F)ncc(F)c2Cl)n1 (racemic) [Example 8] | 100% |  | 100% | 90% |  |
| CC(C)(Cl)c1nc(N)nc(Nc2c(F)ncc(F)c2Cl)n1 [Example 36] | 100% | 100% | 100% |  |  |
| CC(C)(C)c1nc(N)nc(Nc2c(F)ncc(F)c2Cl)n1 [Example 2, 6-tert-butyl-N4-(4-chloro-2,5-difluoro-3-pyridyl)-1,3,5-triazine-2,4-diamine] |  |  |  |  | herbicidal activity ([1]; 125 g/ha): 100%; herbicidal activity ([5]; 125 g/ha): 90% |
| Nc1nc(Nc2c(F)ncc(F)c2Br)nc(C2(F)CCCCC2)n1 [Example 51] | 100% | 100% | 100% |  |  |
| Nc1nc(Nc2c(Cl)ccnc2Cl)nc(C2(F)CCCC2)n1 [Example 47] | 100% |  | 100% |  | herbicidal activity [9]: 100% |
